Results on 14 compounds are retold here after PubChem BioAssay AID248 (DTP/NCI, 2004).

“And” between values parts separate entries of the source, which are not always exact repeats. Identical values can stand only once. Inconclusive results and toxic doses are left out.

The test system of the assay is L1210 leukemia ip in BDF1 mice, survival T/C. Nature of the assay: NCI In Vivo Anticancer Drug Screen. Data for tumor model L1210 Leukemia (intraperitoneal) in B6D2F1 (BDF1) mice. Conditions: endpoint: mean survival time, higher = longer survival. In a few lines: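 Antitumor effect is assessed in tumor-bearing animals. Survival in the compound arm is compared with a vehicle-dosed control arm and expressed as their quotient.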

Where [1] appears, read: dose: 100.0 mg/kg/injection, schedule: Q04DX002 (ip), vehicle: Klucel (hydroxypropylcellulose) (HPC).
Setting [2] is: dose: 200.0 mg/kg/injection, schedule: Q04DX002 (ip), vehicle: Klucel (hydroxypropylcellulose) (HPC).
Setting [3] is: dose: 400.0 mg/kg/injection, schedule: Q04DX002 (ip), vehicle: Klucel (hydroxypropylcellulose) (HPC).
[4] abbreviates: dose: 100.0 mg/kg/injection, schedule: Q01DX009 (ip), vehicle: saline with Tween-80.
Where [5] appears, read: dose: 200.0 mg/kg/injection, schedule: Q01DX009 (ip), vehicle: saline with Tween-80.
Where [6] appears, read: dose: 50.0 mg/kg/injection, schedule: Q01DX009 (ip), vehicle: saline.
The mark [7] stands for this setting: dose: 100.0 mg/kg/injection, schedule: Q01DX009 (ip), vehicle: saline.
Setting [8] is: dose: 200.0 mg/kg/injection, schedule: Q01DX009 (ip), vehicle: saline.
The mark [9] stands for this setting: dose: 400.0 mg/kg/injection, schedule: Q01DX009 (ip), vehicle: saline.
Where [10] appears, read: dose: 12.5 mg/kg/injection, schedule: Q01DX009 (ip), vehicle: saline.
Setting [11] is: dose: 25.0 mg/kg/injection, schedule: Q01DX009 (ip), vehicle: saline.
[12] abbreviates: dose: 100.0 mg/kg/injection, schedule: Q01DX005 (ip), vehicle: saline.
The mark [13] stands for this setting: dose: 200.0 mg/kg/injection, schedule: Q01DX005 (ip), vehicle: saline.

Consider `O=C(O)C1CC(c2ccccc2)C(=O)O1` (stereo not given), for which the T/C by setting is: under setting [1], 100 % of control; under setting [2], 100 % of control; under setting [3], 96 % of control.
Consider `CC1(C)C2CCC1(C)C(Oc1ccccc1)C2` (stereo not given), for which the T/C reads like this: under setting [4], 100 % of control; under setting [5], 98 % of control.
For `O=C(CCN1CC1)Nc1cccc(NC(=O)CCN2CC2)c1`, the T/C reads like this: (dose: 2.5 mg/kg/injection, schedule: Q01DX001 (ip), vehicle: Klucel (hydroxypropylcellulose) (HPC)) 112 % of control; (dose: 40.0 mg/kg/injection, schedule: Q01DX001 (ip), vehicle: Klucel (hydroxypropylcellulose) (HPC)) 153 % of control.
On to `NNCC(F)(F)C(F)(F)C(F)(F)C(F)(F)C(F)(F)C(F)(F)C(F)(F)C(F)F`, for which the T/C runs as follows: (dose: 100.0 mg/kg/injection, schedule: Q01DX009 (ip), vehicle: DMSO) 91 % of control; (dose: 100.0 mg/kg/injection, schedule: Q04DX003 (ip), vehicle: DMSO) 89 % of control; (dose: 200.0 mg/kg/injection, schedule: Q01DX009 (ip), vehicle: DMSO) 92 % of control; (dose: 200.0 mg/kg/injection, schedule: Q04DX003 (ip), vehicle: DMSO) 88 % of control; (dose: 400.0 mg/kg/injection, schedule: Q04DX003 (ip), vehicle: DMSO) 94 % of control.
For `Cc1ccc(S(=O)(=O)NC(=O)Nc2cc(Cl)c(Cl)cc2C)cc1`, the T/C under setting [6] is 100 % of control and 108 % of control; the T/C under setting [4] was 94 % of control and 91 % of control; the T/C under setting [7] is 97 % of control and 88 % of control; the T/C (dose: 100.0 mg/kg/injection, schedule: Q04DX002 (ip), vehicle: saline with Tween-80) is 100 % of control and 110 % of control; the T/C under setting [5] is 93 % of control; the T/C under setting [8] is 94 % of control and 86 % of control. Besides, the T/C is, setting by setting: (dose: 200.0 mg/kg/injection, schedule: Q04DX002 (ip), vehicle: saline with Tween-80) 93 % of control and 96 % of control; under setting [9], 93 % of control; (dose: 400.0 mg/kg/injection, schedule: Q04DX002 (ip), vehicle: saline with Tween-80) 100 % of control and 104 % of control.
For `CCC1([N+](=O)[O-])COP(=O)(NCc2cccnc2)OC1` (stereo not given), the T/C was 92 % of control (dose: 100.0 mg/kg/injection, schedule: Q01DX001 (ip), vehicle: carboxymethylcellulose (CMC)); 101 % of control (dose: 200.0 mg/kg/injection, schedule: Q01DX001 (ip), vehicle: carboxymethylcellulose (CMC)); 116 % of control (dose: 400.0 mg/kg/injection, schedule: Q01DX001 (ip), vehicle: carboxymethylcellulose (CMC)).
As for `Cc1nc(N)[nH]c(=O)c1CCCC#N`, the T/C is, setting by setting: (dose: 100.0 mg/kg/injection, schedule: Q01DX001 (ip), vehicle: Klucel (hydroxypropylcellulose) (HPC)) 104 % of control; under setting [1], 97 % of control and 109 % of control; (dose: 100.0 mg/kg/injection, schedule: Q04DX003 (ip), vehicle: Klucel (hydroxypropylcellulose) (HPC)) 101 % of control; (dose: 200.0 mg/kg/injection, schedule: Q01DX001 (ip), vehicle: Klucel (hydroxypropylcellulose) (HPC)) 98 % of control; under setting [2], 93 % of control and 103 % of control; (dose: 200.0 mg/kg/injection, schedule: Q04DX003 (ip), vehicle: Klucel (hydroxypropylcellulose) (HPC)) 112 % of control. Further, the T/C (dose: 400.0 mg/kg/injection, schedule: Q01DX001 (ip), vehicle: Klucel (hydroxypropylcellulose) (HPC)) was 100 % of control; the T/C under setting [3] was 104 % of control and 90 % of control.
Turning to `OCC1OC(n2cnc3c2nnn2ccnc32)C(O)C1O` (stereo not given), the T/C is, setting by setting: under setting [10], 98 % of control; (dose: 12.5 mg/kg/injection, schedule: Q04DX002 (ip), vehicle: saline) 108 % of control; under setting [11], 101 % of control; (dose: 25.0 mg/kg/injection, schedule: Q04DX002 (ip), vehicle: saline) 108 % of control; under setting [6], 98 % of control and 107 % of control and 123 % of control; (dose: 50.0 mg/kg/injection, schedule: Q04DX002 (ip), vehicle: saline) 104 % of control. The T/C by setting is: (dose: 75.0 mg/kg/injection, schedule: Q01DX009 (ip), vehicle: saline) 100 % of control; under setting [12], 114 % of control; under setting [7], 115 % of control; (dose: 115.0 mg/kg/injection, schedule: Q01DX009 (ip), vehicle: saline) 104 % of control; (dose: 170.0 mg/kg/injection, schedule: Q01DX009 (ip), vehicle: saline) 112 % of control; under setting [13], 107 % of control. Moreover, under setting [8], the T/C was 120 % of control.
For `CN(C)/N=C/c1ccc[n+](C)c1`, the T/C (dose: 6.25 mg/kg/injection, schedule: Q01DX009 (ip), vehicle: saline) was 113 % of control; the T/C under setting [10] was 109 % of control; the T/C under setting [11] is 98 % of control and 110 % of control.
Consider `Cc1c(-c2ccc(Cl)cc2)nc2cc(Cl)ccc2c1C(=O)O`, for which the T/C reads like this: under setting [12], 107 % of control; under setting [7], 100 % of control; under setting [13], 93 % of control; under setting [8], 103 % of control; (dose: 400.0 mg/kg/injection, schedule: Q01DX005 (ip), vehicle: saline) 91 % of control.
For the compound `CNS(=O)(=O)c1ccccc1C(O)(c1ccccc1)c1ccccc1`, the T/C is, setting by setting: (dose: 100.0 mg/kg/injection, schedule: Q01DX001 (ip), vehicle: saline) 94 % of control; (dose: 200.0 mg/kg/injection, schedule: Q01DX001 (ip), vehicle: saline) 100 % of control; (dose: 400.0 mg/kg/injection, schedule: Q01DX001 (ip), vehicle: saline) 111 % of control.
Turning to `CNC(=N)c1ccc(NC(=N)c2ccc(NC(=N)c3ccc(NC(=O)Nc4ccc(C(=N)Nc5ccc(C(=N)Nc6ccc(C(=N)NC)cc6)cc5)cc4)cc3)cc2)cc1`, the T/C by setting is: (dose: 6.25 mg/kg/injection, schedule: Q01DX001 (ip), vehicle: water) 112 % of control; (dose: 12.5 mg/kg/injection, schedule: Q01DX001 (ip), vehicle: water) 108 % of control; (dose: 16.0 mg/kg/injection, schedule: Q01DX015 (ip), vehicle: water) 157 % of control; (dose: 25.0 mg/kg/injection, schedule: Q01DX001 (ip), vehicle: water) 112 % of control; (dose: 31.0 mg/kg/injection, schedule: Q01DX015 (ip), vehicle: water) 214 % of control.
Turning to `Cc1ccc(C(=O)O)cn1`, the T/C by setting is: under setting [7], 97 % of control; (dose: 100.0 mg/kg/injection, schedule: Q04DX003 (ip), vehicle: saline) 97 % of control; under setting [8], 98 % of control; (dose: 200.0 mg/kg/injection, schedule: Q04DX003 (ip), vehicle: saline) 113 % of control; under setting [9], 97 % of control; (dose: 400.0 mg/kg/injection, schedule: Q04DX003 (ip), vehicle: saline) 105 % of control.
On to `O=C(CNC(=O)c1ccccc1)Oc1c(Cl)c(Cl)c(Cl)c(Cl)c1Cl`, for which the T/C is, setting by setting: (dose: 100.0 mg/kg/injection, schedule: Q01DX009 (ip), vehicle: other) 104 % of control; (dose: 200.0 mg/kg/injection, schedule: Q01DX009 (ip), vehicle: other) 98 % of control; (dose: 400.0 mg/kg/injection, schedule: Q01DX009 (ip), vehicle: other) 93 % of control.
